According to article PMC7997389 (Biochemical and Biophysical Research Communications, 2021):

Columns and labels:
[1] = tested on: SARS-CoV-2-GHB-03021/2020; details: hamster, in vivo
[2] = target: human cathepsin L (Homo sapiens, UniProt P07711); test: human cathepsin L biochemical assay; details: 3CLpro versus cathepsin L
[3] = tested on: SARS-CoV-2; details: monotherapy; cited from earlier work
[4] = tested on: SARS-CoV-2; details: cited from earlier work
[5] = tested on: SARS-CoV-2; details: cited from earlier work; remark: listed apart in the source
[6] = tested on: 3CLpro; details: cited from earlier work
[7] = Cytotoxicity in HeLa cells; type: cell-based; details: human
[8] = tested on: human alpha-coronavirus 229E; test: organism not typed; type: cell-based; details: Huh-7, 96 h, read-out: α-CoV 229E (Huh-7) EC50

Chain of human cathepsin L (P07711 114-333): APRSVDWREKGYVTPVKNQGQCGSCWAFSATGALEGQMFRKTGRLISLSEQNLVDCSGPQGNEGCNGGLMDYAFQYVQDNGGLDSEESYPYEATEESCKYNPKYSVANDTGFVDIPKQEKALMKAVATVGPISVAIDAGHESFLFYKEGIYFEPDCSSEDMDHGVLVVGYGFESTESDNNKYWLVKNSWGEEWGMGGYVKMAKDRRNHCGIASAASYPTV

SMILES: CC(C)C(=O)OC[C@H]1O[C@@H](n2ccc(NO)nc2=O)[C@H](O)[C@@H]1O [EIDD-2801]
- reduction in viral RNA copies per mg of lung tissue [1]: 2.0 log10
- reduction of infectious virus titers in the lungs [1]: 4.1 log10 TCID50 per mg

SMILES: CC(C)C[C@H](NC(=O)OCc1ccccc1)C(=O)N[C@@H](CC1CCNC1=O)C(O)S(=O)(=O)[O-].[Na+] (stereo partly shown) [GC-376]
- selectivity against human cathepsin L in comparison with ALG-097111 [2]: significantly less selective
- antiviral effect in a mouse model of SARS-CoV-2 infection [3]: failed to show a clear antiviral effect
- antiviral activity in the K18-hACE2 SARS-CoV-2 infection mouse model [4]: modest antiviral activity

SMILES: CN1CCN(C(=O)N[C@@H](Cc2ccccc2)C(=O)N[C@H](/C=C/S(=O)(=O)c2ccccc2)CCc2ccccc2)CC1 [K117777]
- antiviral effect when TMPRSS2 was expressed ([5]; A549-ACE2 expressing TMPRSS2): abolished
- inhibition of SARS-CoV-2 in cells ([5]; VeroE6, A549-ACE2 and HeLa-ACE2): potent inhibition
- inhibitory effect on the 3CLpro [6]: lacks an inhibitory effect

SMILES: CCC(CC)COC(=O)[C@H](C)N[P@](=O)(OC[C@H]1O[C@@](C#N)(c2ccc3c(N)ncnn23)[C@H](O)[C@@H]1O)Oc1ccccc1 [Remdesivir]
- CC50 [7]: > 5 µM
- EC50 [8]: 14.5 ± 3.48 nM
